The record followed here is patent US12617765B2, “Cannabinoid derivatives” (CANOPY GROWTH CORPORATION, priority 2019, dated 2026).

For one experiment, the target named is T1, human CB2 receptor (Homo sapiens, UniProt P34972).
T1 construct: host or cells: CHO-K1
As to the kind of experiment: CB2 radioligand competitive binding assay ([3H]CP 55,940 displacement). Conditions: for Selectivity CB2: fold difference in selectivity between CB1 and CB2 binding, in the column of the receptor with the higher binding affinity. The protocol: Compounds of the present disclosure were tested for CB1 receptor binding affinity and for CB2 receptor binding affinity. As used herein, “binding affinity” is represented by the IC50 value, which was experimentally determined as described herein. The lower the IC50 value the higher the binding affinity. A compound of the present disclosure may be said to have “binding selectivity” if it has a higher binding affinity for one receptor compared to the other.
The membranes were prepared from CHO-K1 (Chinese hamster ovary) cells stably transfected with the human CB2 receptor (Cat. #ES-111-C; Perkin Elmer, Boston, Mass.). The cells were grown adherently and maintained in Ham's F12 medium containing 10% fetal bovine serum (FBS), penicillin, streptomycin and geneticin (G418) at 37° C. in a humid atmosphere of 5% CO2 following the manufacturer's instructions.
For membrane preparation the cells were washed with PBS and scraped off the plates in cold homogenization buffer (25 mM HEPES (pH 7.4), 2 mM EDTA) containing protease inhibitor cocktail (Sigma Cat. #P8340). The cell suspension was homogenized with a Pro-PK-01200D Polytron Homogenizer (Pro Scientific) and then centrifuged for 30 min at 120,000×g. The supernatant was discarded and the pellet was re-suspended in the homogenization buffer and stored at −80° C. until the time of use.
In this experiment, 3H radiolabeled CP 55,940, i.e. [3H]CP 55,940 (Perkin Elmer, Boston, Mass.), was used as a radioligand for the CB2 receptor to determine the binding affinity of compounds for the CB2 receptor (Scheme 5; above).
The competition binding experiments (single dose and dose-response) were performed by incubating 0.6 nM of [3H]CP55,940 (specific activity 101 Ci/mmol, Perkin Elmer) and different concentrations of compounds disclosed herein with membranes prepared as above from CHO-K1 cells expressing human CB2 receptor (1 μg of protein/well), 50 mM Tris-HCl (pH 7.4), 5 mM MgCl2, 1 mM CaCl2, and 2 mg/mL BSA.
For the single dose experiments, the compound stocks (usually 10 mM in DMSO) were diluted to working stocks in the binding buffer to give the final compound concentrations of 10 μM and 1 μM. For the dose-response experiments the test compounds were sequentially diluted to provide the desired concentration range for the IC50 determination. In each case the compounds were pre-incubated with the membrane for 20 min, before adding the radioligand.
After incubation with the radioligand for 60 min at 37° C., the incubation was terminated by rapid filtration of assay mixture through MultiScreen®HTS+96-well filter plates (Millipore, Cat. #MSFCNXB), pre-soaked for 60 min with 50 mM Tris-HCl (pH 7.4) containing 0.33% polyethylenimine (PEI). The nonspecific binding (NSB) was determined in the presence of 10 μM unlabelled CP55,940. After drying the filter plate at 50° C. for at least 60 min, the filter-bound radioactivity was determined by scintillation spectrometry using the 1450 MicroBeta Plate Counter (Perkin Elmer, Boston, Mass.). From the dose-response experiments, the IC50 values were determined (see Table 1, CB2 IC50).

The target in another experiment is T2, human CB1 receptor (Homo sapiens, UniProt P21554).
T2 construct: host or cells: CHO-K1
T2 sequence (P21554 whole entry): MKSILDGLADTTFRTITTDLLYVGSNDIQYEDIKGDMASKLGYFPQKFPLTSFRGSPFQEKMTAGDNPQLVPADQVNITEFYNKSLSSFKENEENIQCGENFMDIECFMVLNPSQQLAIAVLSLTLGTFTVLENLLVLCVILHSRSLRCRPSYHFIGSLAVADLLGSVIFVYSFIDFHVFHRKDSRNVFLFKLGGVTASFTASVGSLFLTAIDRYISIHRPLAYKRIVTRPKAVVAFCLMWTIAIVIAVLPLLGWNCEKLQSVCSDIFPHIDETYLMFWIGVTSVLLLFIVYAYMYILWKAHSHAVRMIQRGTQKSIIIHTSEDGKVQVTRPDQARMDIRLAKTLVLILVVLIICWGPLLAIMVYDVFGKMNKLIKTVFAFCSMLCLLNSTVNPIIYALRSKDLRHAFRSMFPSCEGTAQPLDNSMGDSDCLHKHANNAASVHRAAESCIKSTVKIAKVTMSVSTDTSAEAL
Put plainly: CB1 radioligand competitive binding assay ([3H]CP 55,940 displacement).

The mark [1] stands for this setting: 0.6 nM [3H]CP55,940, membranes of CHO-K1 cells expressing human CB2 receptor, read-out: CB2 IC50.
Setting [2] is: 0.8 nM [3H]CP 55,940, membranes of CHO-K1 cells expressing human CB1 receptor, read-out: CB1 IC50.

Where two headings read alike, the source gives them in different places.

T1 sequence (P34972 whole entry): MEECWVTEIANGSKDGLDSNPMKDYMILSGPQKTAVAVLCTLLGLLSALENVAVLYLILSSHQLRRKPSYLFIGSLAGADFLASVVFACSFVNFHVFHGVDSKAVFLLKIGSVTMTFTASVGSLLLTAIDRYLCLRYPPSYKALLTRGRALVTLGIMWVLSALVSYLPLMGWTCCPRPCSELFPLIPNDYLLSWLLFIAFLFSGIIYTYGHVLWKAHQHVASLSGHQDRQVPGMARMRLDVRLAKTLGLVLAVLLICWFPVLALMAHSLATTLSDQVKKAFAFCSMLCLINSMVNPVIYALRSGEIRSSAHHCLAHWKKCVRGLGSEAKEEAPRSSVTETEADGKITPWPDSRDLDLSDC

As for `CCCCCc1cc(O)c(C/C=C(\C)CCC=C(C)C)c2c1C(=O)OCO2` [Compound 1, 8-(3,7-dimethylocta-2,6-dien-1-yl)-7-hydroxy-5-pentyl-4H-benzo[d][1,3]dioxin-4-one], the IC50 on human CB2 receptor (setting [1]) was 1000 to 2490 nM; at human CB1 receptor (setting [2]), > 5000 nM. Besides, the “Selectivity CB2” value at human CB2 receptor amounted to 4.07 fold.
With `CCCCCc1cc(O)c(C/C=C(\C)CCC=C(C)C)c2c1C(=O)OC(c1ccccc1)O2` (stereo not drawn) [Compound 3, 8-(3,7-dimethylocta-2,6-dien-1-yl)-7-hydroxy-5-pentyl-2-phenyl-4H-benzo[d][1,3]dioxin-4-one], at human CB2 receptor, the IC50 lay in the range of 1000 to 2490 nM and the “Selectivity CB2” value is 1.19 fold. In addition, the IC50 at human CB1 receptor lay in the range of 1000 to 2490 nM.
For `CCCCCc1cc(O)c(C/C=C(\C)CCC=C(C)C)c2c1C(=O)OC(C)(COC)O2` (stereo not drawn) [Compound 11, 8-(3,7-dimethylocta-2,6-dien-1-yl)-7-hydroxy-2-(methoxymethyl)-2-methyl-5-pentyl-4H-benzo[d][1,3]dioxin-4-one], on human CB2 receptor, the half-inhibitory concentration (IC50) was < 1000 nM and the “Selectivity CB2” value was determined as 4.46 fold. For the same molecule, the IC50 at human CB1 receptor lay within 2500 to 4990 nM.
In the same order, the values of `CCCCCc1cc(O)c(C/C=C(\C)CCC=C(C)C)c2c1C(=O)OC(CC(C)=O)(c1ccccc1)O2` (stereo not drawn) [Compound 12, 8-(3,7-dimethylocta-2,6-dien-1-yl)-7-hydroxy-2-(2-oxopropyl)-5-pentyl-2-phenyl-4H-benzo[d][1,3]dioxin-4-one] are < 1000 nM, 4.31 fold and 2500 to 4990 nM.
In the case of `CCCCCc1cc(O)c(C/C=C(\C)CCC=C(C)C)c2c1C(=O)OC(CC(C)=O)O2` (stereo not drawn) [Compound 14, 8-(3,7-dimethylocta-2,6-dien-1-yl)-7-hydroxy-2-(2-oxopropyl)-5-pentyl-4H-benzo[d][1,3]dioxin-4-one], the IC50 on human CB2 receptor (setting [1]) was 1000 to 2490 nM; at human CB1 receptor (setting [2]) it was 2500 to 4990 nM. Besides, the “Selectivity CB2” value at human CB2 receptor stood at 2.64 fold.
The like results for `CCCCCc1cc(O)c(C/C=C(\C)CCC=C(C)C)c2c1C(=O)OC(CC)O2` (stereo not drawn) [Compound 16, 8-(3,7-dimethylocta-2,6-dien-1-yl)-2-ethyl-7-hydroxy-5-pentyl-4H-benzo[d][1,3]dioxin-4-one] were, in that order, 1000 to 2490 nM, 2500 to 4990 nM and 2.04 fold.
In the same order, the values of `CCCCCc1cc(O)c(C/C=C(\C)CCC=C(C)C)c2c1C(=O)OC(CC(C)=O)(c1ccc(OC)cc1)O2` (stereo not drawn) [Compound 17, 8-(3,7-dimethylocta-2,6-dien-1-yl)-7-hydroxy-2-(4-methoxyphenyl)-2-(2-oxopropyl)-5-pentyl-4H-benzo[d][1,3]dioxin-4-one] are < 1000 nM, 2500 to 4990 nM and 5.45 fold.
For `CCCc1cc(O)c(C/C=C(\C)CCC=C(C)C)c2c1C(=O)OCO2` [Compound 18, 8-(3,7-dimethylocta-2,6-dien-1-yl)-7-hydroxy-5-propyl-4H-benzo[d][1,3]dioxin-4-one], on human CB2 receptor, the IC50 fell in the range of 1000 to 2490 nM and the “Selectivity CB2” value amounted to 3.88 fold. Further, the IC50 at human CB1 receptor is > 5000 nM.
Consider `CCCc1cc(O)c(C/C=C(\C)CCC=C(C)C)c2c1C(=O)OC(c1ccccc1)O2` (stereo not drawn) [Compound 19, 8-(3,7-dimethylocta-2,6-dien-1-yl)-7-hydroxy-2-phenyl-5-propyl-4H-benzo[d][1,3]dioxin-4-one], for which, on human CB2 receptor, the IC50 lay in the range of 1000 to 2490 nM and the “Selectivity CB2” value is 3.92 fold. The IC50 on human CB1 receptor is > 5000 nM.
